Reference: patent publication US8309685B2 (Celgene Avilomics Research, Inc., priority 2007, dated 2012)
Like-named read-outs stand apart in the source and are kept apart here.

Experiments:
[1] = target: T1, A156T mutant of the HCV NS3/4A 1b protease enzyme (Hepatitis C virus genotype 1b, UniProt P26663, A1182T); assay: HCV Protease FRET Assay (IC50_APP), A156T mutant; type: biochemical; settings: apparent IC50, A156T mutant; read-out: IC50_APP, HCV A156T
T1 construct: 10× stocks of NS3/4A protease enzyme from Bioenza (Mountain View, Calif.); purchased Bioenza (Mountain View, Calif.)
Procedure: (§1) HCV Protease FRET Assay for WT and Mutated NS3/4A 1b Enzymes (IC50—APP).
(§2) The following protocol was used to generate “apparent” IC50 (IC50—APP) values as depicted in Table 6, below. […] 5 μL of each enzyme were added to Corning (#3575) 384-well, black, microtiter plates (Corning, N.Y.) after spotting a 0.5 μL volume of 50% DMSO and serially diluted compounds prepared in 50% DMSO. Protease reactions were immediately started after enzyme addition with the addition of 45 μL of the FRET substrate and monitored for 60-90 minutes at λex485/λem520 in a Synergy^4 plate reader from BioTek (Winooski, Vt.). At the conclusion of each assay, progress curves from each well were examined for linear reaction kinetics and fit statistics (R^2, 95% confidence intervals, absolute sum of squares).
(§3) The compound numbers correspond to the compound numbers in Table 3. […] ;

[2] = test system: HCV RNA replicon in cell line ET (luc-ubi-neo/ET), human Huh7 hepatoma; assay: Method A: HCV RNA replicon antiviral assay (luciferase, ET cell line); type: cell-based, Hepatitis C virus; settings: Hepatitis C virus, Huh-7, assay described in Example 22; for IC50: read-out: Replicon (IC50)
Procedure: The compounds were assayed to evaluate the antiviral activity and cytotoxicity of compounds in vitro using HCV RNA replicons. This assay used the cell line ET (luc-ubi-neo/ET), which is a human Huh7 hepatoma cell line that contains an HCV RNA replicon with a stable luciferase (Luc) reporter and three cell culture-adaptive mutations. […]
The ET cell line was grown in Dulbecco's modified essential media (DMEM), 10% fetal bovine serum (FBS), 1% penicillin-streptomycin (pen-strep), 1% glutamine, 250 μg/ml G418 in a 5% CO2 incubator at 37° C. All cell culture reagents were obtained from Mediatech (Manassas, Va.). Cells were trypsinized (1% trypsin:EDTA) and plated out at 5×10^3 cells/well in white 96-well assay plates (Costar) dedicated to cell number (cytotoxicity) or antiviral activity assessments. Drugs were added at six 3-fold concentrations each and the assay was run in DMEM, 5% FBS, 1% pen-strep, 1% glutamine. Human interferon alpha-2b (PBL Biolabs, New Brunswick, N.J.) was included in each run as a positive control compound. Cells were processed 72 hr post drug addition when the cells are still subconfluent. Antiviral activity was measured by analyzing replicon-derived luciferase activity using the Steady-Glo Luciferase Assay System (Promega, Madison, Wis.) according to manufacturer's instruction. The number of cells in each well was determined by CytoTox-1 reagent (Promega). Compound profile was derived by calculating applicable EC50 (effective concentration inhibiting virus replication by 50%), EC90 (effective concentration inhibiting virus replication by 90%), IC50 (concentration decreasing cell viability by 50%) and SI50 (selective index: […]) values.

[3] = target: T2, R155K mutant of the HCV NS3/4A 1b protease enzyme (Hepatitis C virus genotype 1b, UniProt P26663, R1181K); assay: HCV Protease FRET Assay (IC50_APP), R155K mutant; type: biochemical; settings: apparent IC50, R155K mutant; read-out: IC50_APP, HCV R155K
T2 construct: 10× stocks of NS3/4A protease enzyme from Bioenza (Mountain View, Calif.); purchased Bioenza (Mountain View, Calif.)
Procedure: as §1, §2, §3

[4] = target: T3, D168A mutant of the HCV NS3/4A 1b protease enzyme (Hepatitis C virus genotype 1b, UniProt P26663, D1194A); assay: HCV Protease FRET Assay (IC50_APP), D168A mutant; type: biochemical; settings: apparent IC50, D168A mutant; read-out: IC50_APP, HCV D168A
T3 construct: 10× stocks of NS3/4A protease enzyme from Bioenza (Mountain View, Calif.); purchased Bioenza (Mountain View, Calif.)
Procedure: as §1, §2, §3

[5] = target: T4, wild type HCV NS3/4A 1b protease enzyme (Hepatitis C virus genotype 1b, UniProt P26663); assay: HCV Protease FRET Assay (IC50_APP), wild type; type: biochemical
T4 construct: 10× stocks of NS3/4A protease enzyme from Bioenza (Mountain View, Calif.); purchased Bioenza (Mountain View, Calif.)
Procedure: as §1, §2, §3

[6] = test system: HCV RNA replicon in cell line ET (luc-ubi-neo/ET), human Huh7 hepatoma; assay: Luciferase Assay (Example 35), replicon-derived luciferase activity; type: cell-based; settings: Hepatitis C virus, Huh-7, assay described in Example 35
Procedure: The compounds were assayed to evaluate the antiviral activity and cytotoxicity of compounds using replicon-derived luciferase activity. This assay used the cell line ET (luc-ubi-neo/ET), which is a human Huh7 hepatoma cell line that contains an HCV RNA replicon with a stable luciferase (Luc) reporter and cell culture-adaptive mutations. The ET cell line was grown in a 5% CO2 incubator at 37° C. in Dulbecco's modified essential media (DMEM) supplemented with 2 mM L-glutamine, nonessential amino acids, 100 U of penicillin/ml, 100 μg of streptomycin/mL, and 10% fetal bovine serum. G418 (Geneticin; Invitrogen) was added at a final concentration of 400 ug//mL.
All cell culture reagents were obtained from Invitrogen (Carlsbad). Cells were trypsinized (1% trypsin:EDTA) and plated out at 5×10^3 cells/well in white 96-well assay plates (Costar) dedicated to cell number (cytotoxicity) or antiviral activity assessments. Test compounds were added at six 3-fold concentrations each and the assay was run in DMEM, 5% FBS, 1% pen-strep, 1% glutamine, 1% non essential amino acid. Human interferon alpha-2b (PBL Biolabs, New Brunswick, N.J.) was included in each run as a positive control compound. Cells were processed 72 hr post test compound addition when the cells were still subconfluent. Antiviral activity was measured by analyzing replicon-derived luciferase activity using the Steady-Glo Luciferase Assay System (Promega, Madison, Wis.) according to manufacturer's instruction. The number of cells in each well was determined by Cell Titer Blue Assay (Promega). Compound profile was derived by calculating applicable EC50 (effective concentration inhibiting virus replication by 50%), EC90 (effective concentration inhibiting virus replication by 90%), IC50 (concentration decreasing cell viability by 50%) and SI50 (selective index: […]) values.

[7] = read-out: IC50_APP, WT, apparent IC50, wild type NS3/4A 1b

C=CC(=O)NC[C@@H]1NC(=O)OCCC/C=C/c2ccc3ccnc(c3c2)O[C@@H]2C[C@@H](C(=O)N[C@]3(C(=O)NS(=O)(=O)C4CC4)C[C@H]3C=C)N(C2)C1=O [Compound I-77, (1R,2S)-N-1-cyclopropylsulfonylcarboxamido-2-vinylcyclopropyl (2R,4S,7S,14E)-7-acrylamidomethyl-2H-16,18-etheno-2,5-methano-11H-pyrido[2,3-k][1,10,3,6]dioxadiazacyclononadecine-4-ylcarboxamide]
IC50 [1]: 100 to 1000 nM | IC90 [2]: 10 to 100 nM | IC50 [2]: < 10 nM | IC50 [3]: 10 to 100 nM | IC50 [4]: 100 to 1000 nM | IC50 [5]: < 10 nM

C=CC(=O)N(C)C[C@@H]1NC(=O)OCCC/C=C/c2ccc3ccnc(c3c2)O[C@@H]2C[C@@H](C(=O)N[C@]3(C(=O)NS(=O)(=O)C4CC4)C[C@H]3C=C)N(C2)C1=O [Compound I-83]
IC50 [3]: 1000 to 10000 nM | IC50 [4]: 1000 to 10000 nM | IC50 [5]: 10 to 100 nM

C=CC(=O)NC[C@H](NC(=O)OC1CCCC1)C(=O)N1C[C@H](Oc2nccc3ccc(-c4cccs4)cc23)C[C@H]1C(=O)N[C@]1(C(=O)NS(=O)(=O)C2CC2)C[C@H]1C=C [Compound I-88, Cyclopentyl-(S)-3-acrylamido-1-((2S,4R)-2-((1R,2S)-1-(cyclopropylsulfonylcarbamoyl)-2-vinylcyclopropylcarbamoyl)-4-(7-(thiophen-2-yl)isoquinolin-1-yloxy)pyrrolidin-1-yl)-1-oxopropan-2-ylcarbamate]
IC90 [2]: 10 to 100 nM | IC50 [2]: < 10 nM | IC50 [3]: 1000 to 10000 nM | IC50 [4]: 100 to 1000 nM | IC50 [5]: < 10 nM

C=C[C@@H]1C[C@]1(NC(=O)[C@@H]1C[C@@H](Oc2nccc3ccc(Br)cc23)CN1C(=O)[C@H](CCC(=O)/C(C)=C/C)NC(=O)OC(C)(C)C)C(=O)NS(=O)(=O)C1CC1 [Compound I-91, {1-[4-(7-Bromo-isoquinolin-1-yloxy)-2-(1-cyclopropanesulfonylaminocarbonyl-2-vinyl-cyclopropylcarbamoyl)-pyrrolidine-1-carbonyl]-5-methyl-4-oxo-hept-5-enyl}-carbamic acid tert-butyl ester]
EC90 [6]: 100 to 1000 nM | EC50 [6]: 10 to 100 nM | IC50 [3]: 100 to 1000 nM | IC50 [4]: 1000 to 10000 nM | IC50 [5, 7]: < 10 nM

C=CC(=O)NC[C@H](NC(=O)OC(C)(C)C)C(=O)N1C[C@H](Oc2nccc3cc(OC)ccc23)C[C@H]1C(=O)N[C@]1(C(=O)NS(=O)(=O)C2CC2)C[C@H]1C=C [Compound I-92, {1-(Acryloylamino-methyl)-2-[2-(1-cyclopropanesulfonylaminocarbonyl-2-vinyl-cyclopropylcarbamoyl)-4-(6-methoxy-isoquinolin-1-yloxy)-pyrrolidin-1-yl]-2-oxo-ethyl}-carbamic acid tert-butyl ester]
EC90 [6]: 100 to 1000 nM | EC50 [6]: 10 to 100 nM | IC50 [3]: 10 to 100 nM | IC50 [4]: 100 to 1000 nM | IC50 [5, 7]: < 10 nM

C=CC(=O)NC[C@H](NC(=O)CCCC[C@H]1SC[C@H]2NC(=O)N[C@H]21)C(=O)N1C[C@H](Oc2nccc3cc(OC)ccc23)C[C@H]1C(=O)N[C@]1(C(=O)NS(=O)(=O)C2CC2)C[C@H]1C=C [Compound I-103, 1-{3-Acryloylamino-2-[5-(2-oxo-hexahydro-thieno[3,4-d]imidazol-6-yl)-pentanoylamino]-propionyl}-4-(6-methoxy-isoquinolin-1-yloxy)-pyrrolidine-2-carboxylic acid (1-cyclopropanesulfonylaminocarbonyl-2-vinyl-cyclopropyl)-amide]
IC50 [3]: 100 to 1000 nM | IC50 [4]: 10 to 100 nM | IC50 [5, 7]: 10 to 100 nM

C=CC(=O)NC[C@H](NC(=O)CCCC(=O)NCCCOCCOCCOCCCNC(=O)CCCC[C@@H]1SC[C@@H]2NC(=O)N[C@@H]21)C(=O)N1C[C@H](Oc2nccc3cc(OC)ccc23)C[C@H]1C(=O)N[C@]1(C(=O)NS(=O)(=O)C2CC2)C[C@H]1C=C [Compound I-104]
IC50 [3]: 10 to 100 nM | IC50 [4]: 10 to 100 nM | IC50 [5, 7]: < 10 nM

CC[C@@H]1C[C@]1(NC(=O)[C@@H]1C[C@@H](Oc2nccc3cc(OC)ccc23)CN1C(=O)[C@H](CCC(=O)C=C(C)C)NC(=O)OC(C)(C)C)C(=O)NS(=O)(=O)C1CC1 [Compound I-114]
EC50 [6]: 10 to 100 nM | IC50 [3]: 100 to 1000 nM | IC50 [5, 7]: < 10 nM

C=CC(=O)N[C@@H](C(=O)N1C[C@H](Oc2nccc3cc(OC)ccc23)C[C@H]1C(=O)N[C@]1(C(=O)NS(=O)(=O)C2CC2)C[C@H]1C=C)C(C)(C)O [Compound I-130]
EC50 [6]: 100 to 1000 nM | IC50 [4]: 100 to 1000 nM | IC50 [5, 7]: 10 to 100 nM

C=C[C@@H]1C[C@]1(NC(=O)[C@@H]1C[C@@H](Oc2nccc3cc(OC)ccc23)CN1C(=O)[C@H](CC(=O)/C(C)=C/C)NC(=O)OC(C)(C)C)C(=O)NS(=O)(=O)C1CC1 [Compound I-133]
IC50 [3]: 10 to 100 nM | IC50 [4]: 100 to 1000 nM | IC50 [5, 7]: < 10 nM

C=C[C@@H]1C[C@]1(NC(=O)[C@@H]1C[C@@H](Oc2nccc3cc(OC)ccc23)CN1C(=O)[C@@H](NC(=O)OC(C)(C)C)C(C)(C)C(=O)C=C(C)C)C(=O)NS(=O)(=O)C1CC1 [Compound I-134]
IC50 [3]: 10 to 100 nM | IC50 [4]: 100 to 1000 nM | IC50 [5, 7]: < 10 nM

C=C[C@@H]1C[C@]1(NC(=O)[C@@H]1C[C@@H](Oc2nccc3cc(OC)ccc23)CN1C(=O)[C@H](CCC(=O)/C=C/c1ccccc1)NC(=O)OC(C)(C)C)C(=O)NS(=O)(=O)C1CC1 [Compound I-137]
IC50 [3]: 1000 to 10000 nM | IC50 [4]: 1000 to 10000 nM | IC50 [5, 7]: 10 to 100 nM

[2H]C([2H])([2H])C(=CC(=O)CC[C@H](NC(=O)OC(C)(C)C)C(=O)N1C[C@H](Oc2nccc3cc(OC)ccc23)C[C@H]1C(=O)N[C@]1(C(=O)NS(=O)(=O)C2CC2)C[C@H]1C=C)C([2H])([2H])[2H] [Compound I-142]
IC50 [3]: 10 to 100 nM | IC50 [4]: 100 to 1000 nM | IC50 [5, 7]: < 10 nM

C=C[C@@H]1C[C@]1(NC(=O)[C@@H]1C[C@@H](Oc2nccc3cc(OC)ccc23)CN1C(=O)[C@H](CCC(=O)/C=C/C(C)(C)C)NC(=O)OC(C)(C)C)C(=O)NS(=O)(=O)C1CC1 [Compound I-143]
IC50 [3]: 100 to 1000 nM | IC50 [4]: 1000 to 10000 nM | IC50 [5, 7]: < 10 nM
